Key:
[1] = Collisional quenching experiments on NAAzAP with free amino acids and imidazole; type: physicochemical
[2] = Fluorescence spectra of NAAzAP in different solvents; type: physicochemical; conditions: upon lowering solvent polarity, λex 342 nm
[3] = Fluorescence lifetime measurements; type: physicochemical; conditions: free and peptide incorporated forms
[4] = Absorption and fluorescence; type: physicochemical
[5] = typical range; depends on solvent exposure and quenching; cited from earlier work
CaM = conditions: cited from earlier work

CCCNC(=O)C(Cc1ccc2cccccc1-2)NC(C)=O (centres unmarked) [NAAzAP, N-Acetyl-(AzulylAlanine)-propylamide]
fluorescence quenching ([1]; quencher: free methionine): quenched
fluorescence quenching ([1]; quencher: imidazole): quenched
fluorescence quenching ([1]; quencher: tryptophan, same conditions): not by tyrosine or tryptophan
fluorescence quenching ([1]; quencher: tyrosine, same conditions): not by tyrosine or tryptophan
red shift of fluorescence spectra [2]: 6 nm

N[C@@H](Cc1ccc2cccccc1-2)C(=O)O [AzAla, β-(1-Azulenyl)-L-Alanine]
fluorescence decay [3]: simple monoexponential fluorescence decay
extinction coefficient ([4]; S2-S0 transition): ~ 4200 cm^−1M^−1
quantum yield ([4]; relative to tryptophan): comparable to those of tryptophan
apparent emission intensity ([4]; relative to tryptophan, narrower profile of the azulene emission): nearly the same apparent emission intensity

N[C@@H](Cc1c[nH]c2ccccc12)C(=O)O [Tryptophan]
apparent Trp quantum yield (Φ) [5]: 0.35 to 0.01

Melittin: Melittin has strong affinity for CaM
affinity for CaM (CaM): strong affinity for CaM

From article PMC3547328 (Chemical communications (Cambridge, England), 2013)
